Results reported in ChEMBL document CHEMBL1909046, “DrugMatrix in vitro pharmacology data”.

How the values were obtained:
[1] = molecular target: Beta-3 adrenergic receptor (Homo sapiens, UniProt P13945); test: DRUGMATRIX: Adrenergic beta3 radioligand binding (ligand: [125I] Cyanopindolol); assay type: cell membranes, HEK293, Membrane; details: Not Active = under 50% inhibition at 10 µM
[2] = molecular target: T1, Receptor-type tyrosine-protein phosphatase C (Homo sapiens, UniProt P08575); design: species or system Escherichia coli;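 further: inhibition of CD45 enzyme activity measured using DiFMUP as substrate; in other assays of this panel Not Active means under 50% inhibition at 10 µM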
T1 sequence (P08575 whole entry): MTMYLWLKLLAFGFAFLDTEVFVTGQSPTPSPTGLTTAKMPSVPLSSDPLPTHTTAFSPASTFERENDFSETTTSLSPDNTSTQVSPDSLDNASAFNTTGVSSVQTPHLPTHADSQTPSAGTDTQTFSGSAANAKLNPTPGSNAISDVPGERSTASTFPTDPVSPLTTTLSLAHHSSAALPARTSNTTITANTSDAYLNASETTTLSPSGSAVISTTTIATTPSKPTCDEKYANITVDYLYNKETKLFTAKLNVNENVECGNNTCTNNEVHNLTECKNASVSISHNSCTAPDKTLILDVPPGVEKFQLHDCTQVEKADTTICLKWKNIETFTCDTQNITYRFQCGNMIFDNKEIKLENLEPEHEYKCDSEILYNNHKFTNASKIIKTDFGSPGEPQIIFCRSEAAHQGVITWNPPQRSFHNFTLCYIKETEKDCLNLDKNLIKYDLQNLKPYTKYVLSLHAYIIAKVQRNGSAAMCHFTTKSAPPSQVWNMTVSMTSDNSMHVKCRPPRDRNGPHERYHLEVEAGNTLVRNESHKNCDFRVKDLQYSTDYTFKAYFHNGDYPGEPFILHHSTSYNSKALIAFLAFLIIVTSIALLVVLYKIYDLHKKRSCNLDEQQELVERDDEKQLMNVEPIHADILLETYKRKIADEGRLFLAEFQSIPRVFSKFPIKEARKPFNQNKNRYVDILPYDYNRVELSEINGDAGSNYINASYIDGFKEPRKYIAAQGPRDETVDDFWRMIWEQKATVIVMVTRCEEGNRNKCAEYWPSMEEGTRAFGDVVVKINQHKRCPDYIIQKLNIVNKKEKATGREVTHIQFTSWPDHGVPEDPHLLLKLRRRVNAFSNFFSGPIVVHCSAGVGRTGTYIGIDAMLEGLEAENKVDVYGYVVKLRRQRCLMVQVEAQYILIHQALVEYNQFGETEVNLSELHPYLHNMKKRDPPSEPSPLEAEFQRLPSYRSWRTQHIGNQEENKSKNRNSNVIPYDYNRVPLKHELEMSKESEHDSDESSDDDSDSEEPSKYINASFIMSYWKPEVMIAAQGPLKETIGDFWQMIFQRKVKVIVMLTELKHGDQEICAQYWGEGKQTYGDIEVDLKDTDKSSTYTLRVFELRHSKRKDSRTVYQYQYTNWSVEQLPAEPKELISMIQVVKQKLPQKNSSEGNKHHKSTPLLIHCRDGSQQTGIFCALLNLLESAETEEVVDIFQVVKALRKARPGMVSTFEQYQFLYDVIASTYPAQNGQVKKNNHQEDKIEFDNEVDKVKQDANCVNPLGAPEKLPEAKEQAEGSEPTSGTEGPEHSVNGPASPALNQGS

Substance-K receptor = molecular target: T2, Substance-K receptor (Homo sapiens, UniProt P21452); assay type: cell membranes, CHO, Membrane; further: in other assays of this panel Not Active means under 50% inhibition at 10 µM
T2 sequence (P21452 whole entry): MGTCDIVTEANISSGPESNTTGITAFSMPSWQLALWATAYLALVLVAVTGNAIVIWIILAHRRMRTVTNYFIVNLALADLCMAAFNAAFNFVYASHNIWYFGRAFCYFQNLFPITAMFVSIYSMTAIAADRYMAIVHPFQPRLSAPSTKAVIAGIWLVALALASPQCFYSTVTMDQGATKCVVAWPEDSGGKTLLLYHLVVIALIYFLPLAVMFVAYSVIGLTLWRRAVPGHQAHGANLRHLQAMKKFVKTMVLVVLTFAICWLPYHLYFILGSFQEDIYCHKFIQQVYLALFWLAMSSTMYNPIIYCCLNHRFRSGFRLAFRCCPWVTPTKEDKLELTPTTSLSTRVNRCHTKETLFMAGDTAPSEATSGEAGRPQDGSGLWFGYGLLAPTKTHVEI

[3] = molecular target: Delta-type opioid receptor (Homo sapiens, UniProt P41143); assay type: cell membranes, HEK293, Membrane; further: in other assays of this panel Not Active means under 50% inhibition at 10 µM
Delta-type opioid receptor, sequence (P41143 whole entry): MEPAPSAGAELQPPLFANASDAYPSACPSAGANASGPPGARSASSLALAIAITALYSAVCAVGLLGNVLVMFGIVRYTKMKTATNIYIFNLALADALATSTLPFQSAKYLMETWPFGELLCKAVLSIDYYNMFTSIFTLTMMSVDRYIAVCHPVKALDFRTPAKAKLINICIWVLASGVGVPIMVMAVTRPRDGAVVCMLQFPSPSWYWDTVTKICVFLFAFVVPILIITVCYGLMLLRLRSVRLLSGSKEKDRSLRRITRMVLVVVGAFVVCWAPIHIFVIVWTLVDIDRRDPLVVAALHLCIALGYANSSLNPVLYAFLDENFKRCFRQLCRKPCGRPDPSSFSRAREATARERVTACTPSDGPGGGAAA

Adenosine receptor A2a = Adenosine receptor A2a (Homo sapiens, UniProt P29274); test: DRUGMATRIX: Adenosine A2A radioligand binding (ligand: […]); assay type: cell membranes, HEK293, Membrane; details: Not Active = under 50% inhibition at 10 µM
Adenosine receptor A2a, sequence (P29274 whole entry): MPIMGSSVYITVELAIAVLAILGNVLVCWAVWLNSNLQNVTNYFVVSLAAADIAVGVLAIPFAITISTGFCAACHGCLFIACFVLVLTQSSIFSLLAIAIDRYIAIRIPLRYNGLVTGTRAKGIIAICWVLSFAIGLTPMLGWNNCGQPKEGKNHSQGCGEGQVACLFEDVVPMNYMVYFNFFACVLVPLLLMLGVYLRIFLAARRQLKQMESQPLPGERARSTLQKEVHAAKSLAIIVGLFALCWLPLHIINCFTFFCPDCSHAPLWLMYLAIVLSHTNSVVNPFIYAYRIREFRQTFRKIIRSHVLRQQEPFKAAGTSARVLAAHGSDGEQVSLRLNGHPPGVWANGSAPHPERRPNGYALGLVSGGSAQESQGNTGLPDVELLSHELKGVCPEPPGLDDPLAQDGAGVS

Beta-3 adrenergic receptor, sequence (P13945 whole entry): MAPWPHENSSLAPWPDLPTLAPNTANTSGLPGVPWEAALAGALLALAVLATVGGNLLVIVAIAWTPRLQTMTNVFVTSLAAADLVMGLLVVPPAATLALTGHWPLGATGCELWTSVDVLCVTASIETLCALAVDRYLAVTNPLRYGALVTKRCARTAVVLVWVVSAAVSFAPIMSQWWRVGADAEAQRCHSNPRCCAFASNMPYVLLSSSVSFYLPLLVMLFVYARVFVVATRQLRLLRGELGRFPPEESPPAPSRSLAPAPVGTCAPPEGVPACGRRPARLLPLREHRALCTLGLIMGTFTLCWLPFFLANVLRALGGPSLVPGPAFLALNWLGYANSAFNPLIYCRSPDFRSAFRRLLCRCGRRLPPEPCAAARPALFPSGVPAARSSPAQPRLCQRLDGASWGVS

Compound	IC50 ([1]; hek293)	IC50 [2]	IC50 (Substance-K receptor; cho)	IC50 ([3]; hek293)	IC50 (Adenosine receptor A2a; hek293)	other results
CCCCC(=O)N(Cc1ccc(-c2ccccc2-c2nnn[nH]2)cc1)[C@H](C(=O)O)C(C)C	Not Active	Not Active	Not Active	Not Active	Not Active	–
O=C(O)COc1ccc(C(=O)c2cccs2)c(Cl)c1Cl	Not Active	Not Active	Not Active	Not Active	Not Active	–
CN1[C@@H]2CC[C@H]1C[C@@H](OC(c1ccccc1)c1ccccc1)C2 [BENZTROPINE]	Not Active	Not Active	Not Active	Not Active	Not Active	–
C[C@@](Cc1ccc(O)c(O)c1)(NN)C(=O)O.O [CARBIDOPA]	Not Active	Not Active	Not Active	Not Active	Not Active	–
CN1CCN(C2=Nc3cc(Cl)ccc3Nc3ccccc32)CC1 [CLOZAPINE]	Not Active	Not Active	Not Active	Not Active	Not Active	–
CC(C)NC[C@@H](O)COc1cccc2ccccc12 [DEXPROPRANOLOL]	Not Active	Not Active	Not Active	Not Active	Not Active	–
CC(C)NC[C@H](O)COc1cccc2ccccc12 [LEVOPROPRANOLOL]	–	Not Active	Not Active	Not Active	Not Active	–
O=C(O)CCCCC1CCSS1 (stereo not drawn) [LIPOIC ACID, ALPHA]	Not Active	Not Active	Not Active	Not Active	Not Active	–
CN(C)C(=O)C(CCN1CCC(O)(c2ccc(Cl)cc2)CC1)(c1ccccc1)c1ccccc1 [LOPERAMIDE]	–	Not Active	Not Active	–	Not Active	–
Clc1ccc(COC(Cn2ccnc2)c2ccc(Cl)cc2Cl)c(Cl)c1 (centres undefined) [MICONAZOLE]	–	Not Active	–	–	–	IC50 ([1]; read-out: IC50): 5.48 µM; Ki ([1]; read-out: Ki): 4.11 µM; IC50 (Substance-K receptor; read-out: IC50): 4.84 µM; Ki (Substance-K receptor; read-out: Ki): 1.61 µM; IC50 ([3]; read-out: IC50): 3.39 µM; Ki ([3]; read-out: Ki): 1.19 µM
Oc1ccc2c3c1O[C@H]1[C@@H](O)CC[C@@]4(O)[C@@H](C2)N(CC2CCC2)CC[C@]314 [NALBUPHINE]	Not Active	Not Active	Not Active	–	Not Active	–
C[C@]12C=CC(=O)C=C1CC[C@@H]1[C@@H]2C(=O)C[C@@]2(C)[C@H]1CC[C@]2(O)C(=O)CO [PREDNISONE]	Not Active	Not Active	Not Active	Not Active	Not Active	–
OCCOCCN1CCN(C2=Nc3ccccc3Sc3ccccc32)CC1 [QUETIAPINE]	Not Active	Not Active	Not Active	Not Active	Not Active	–
COC(=O)[C@H]1[C@H]2C[C@@H]3c4[nH]c5cc(OC)ccc5c4CCN3C[C@H]2C[C@@H](OC(=O)c2cc(OC)c(OC)c(OC)c2)[C@@H]1OC [RESERPINE]	Not Active	Not Active	Not Active	Not Active	Not Active	–
O=C(O)c1ccccc1O [SALICYLIC ACID]	Not Active	Not Active	Not Active	Not Active	Not Active	–
C[S+]([O-])c1ccc(-c2nc(-c3ccncc3)c(-c3ccc(F)cc3)[nH]2)cc1 (centres undefined) [SB-203580]	Not Active	Not Active	Not Active	Not Active	–	IC50 (Adenosine receptor A2a; read-out: IC50): 6.07 µM; Ki (Adenosine receptor A2a; read-out: Ki): 3.41 µM
CC1CCC(NC(=O)N(CCCl)N=O)CC1 (centres undefined) [SEMUSTINE]	Not Active	Not Active	Not Active	Not Active	Not Active	–
O=C1C[C@@H]2OCC=C3CN4CC[C@]56c7ccccc7N1[C@H]5[C@H]2[C@H]3C[C@H]46 [STRYCHNINE]	Not Active	Not Active	Not Active	Not Active	Not Active	–
C[N+](C)(C)CCOC(=O)CCC(=O)OCC[N+](C)(C)C.[Cl-].[Cl-] [SUCCINYLCHOLINE CHLORIDE]	Not Active	Not Active	Not Active	Not Active	Not Active	–
Nc1ccc(S(=O)(=O)NC(=O)c2ccccc2)cc1 [SULFABENZAMIDE]	Not Active	Not Active	Not Active	Not Active	Not Active	–
CCCCCCCCNC(C)C(O)c1ccc(SC(C)C)cc1 (centres undefined) [SULOCTIDIL]	–	Not Active	–	Not Active	Not Active	IC50 (Substance-K receptor; read-out: IC50): 6.79 µM; Ki (Substance-K receptor; read-out: Ki): 2.26 µM
O=c1[nH]c(=O)n(C2CCCO2)cc1F (centres undefined) [TEGAFUR]	Not Active	Not Active	Not Active	Not Active	Not Active	–
CC(=N)S [THIOACETAMIDE]	Not Active	Not Active	Not Active	Not Active	Not Active	–
Cc1ccc(C(=O)c2ccc(CC(=O)O)n2C)cc1 [TOLMETIN]	Not Active	Not Active	Not Active	Not Active	Not Active	–
CC(=O)OCC(COC(C)=O)OC(C)=O [TRIACETIN]	Not Active	Not Active	Not Active	Not Active	Not Active	–
CN1CCN(CCCN2c3ccccc3Sc3ccc(C(F)(F)F)cc32)CC1 [TRIFLUOPERAZINE]	Not Active	Not Active	Not Active	Not Active	Not Active	–
TRANSPLATIN	Not Active	Not Active	Not Active	Not Active	Not Active	Ki ([1]; hek293): Not Active; Ki [2]: Not Active; Ki (Substance-K receptor; cho): Not Active; Ki ([3]; hek293): Not Active; Ki (Adenosine receptor A2a; hek293): Not Active
ZIRCONIUM(IV) CHLORIDE	Not Active	Not Active	Not Active	Not Active	Not Active	Ki ([1]; hek293): Not Active; Ki [2]: Not Active; Ki (Substance-K receptor; cho): Not Active; Ki ([3]; hek293): Not Active; Ki (Adenosine receptor A2a; hek293): Not Active
